How the values were obtained:
Coagulation factor X = Coagulation factor X (Homo sapiens, UniProt P00742); assay: Inhibition constant towards human coagulation factor X
Coagulation factor VII = target: T1, Coagulation factor VII (Homo sapiens, UniProt P08709); assay: Inhibition constant towards human coagulation factor VII
T1 sequence (P08709 whole entry): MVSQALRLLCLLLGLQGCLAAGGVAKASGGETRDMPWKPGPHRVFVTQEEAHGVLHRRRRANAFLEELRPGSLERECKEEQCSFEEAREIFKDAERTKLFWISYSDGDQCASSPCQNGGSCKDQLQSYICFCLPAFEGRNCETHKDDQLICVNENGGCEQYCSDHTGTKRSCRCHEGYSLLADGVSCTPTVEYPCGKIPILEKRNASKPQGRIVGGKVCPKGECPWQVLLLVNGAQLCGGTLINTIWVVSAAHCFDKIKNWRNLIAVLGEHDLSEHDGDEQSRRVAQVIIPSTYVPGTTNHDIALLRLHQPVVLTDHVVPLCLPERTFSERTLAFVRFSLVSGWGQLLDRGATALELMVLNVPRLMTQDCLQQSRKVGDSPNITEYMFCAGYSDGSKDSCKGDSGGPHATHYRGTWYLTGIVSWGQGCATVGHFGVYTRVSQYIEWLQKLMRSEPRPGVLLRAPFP

Serine protease 1 = target: T2, Serine protease 1 (Bos taurus, UniProt P00760); assay: Inhibition constant towards bovine trypsin
T2 sequence (P00760 whole entry): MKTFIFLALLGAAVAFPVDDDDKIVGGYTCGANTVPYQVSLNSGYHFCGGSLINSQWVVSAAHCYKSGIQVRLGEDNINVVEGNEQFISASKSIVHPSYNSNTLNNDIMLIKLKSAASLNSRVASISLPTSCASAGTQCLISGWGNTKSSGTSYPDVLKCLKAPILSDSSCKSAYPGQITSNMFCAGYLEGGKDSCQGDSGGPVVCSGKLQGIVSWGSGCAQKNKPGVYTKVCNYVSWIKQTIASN

Prothrombin = Prothrombin (Homo sapiens, UniProt P00734); assay: Inhibition constant towards human thrombin

Sequence of Coagulation factor X (P00742 41-179 limits assumed): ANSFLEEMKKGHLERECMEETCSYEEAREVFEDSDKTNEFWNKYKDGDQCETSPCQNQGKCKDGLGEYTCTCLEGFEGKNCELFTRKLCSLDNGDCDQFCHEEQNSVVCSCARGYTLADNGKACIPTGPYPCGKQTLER
Sequence of Coagulation factor X (P00742 235-488 limits assumed): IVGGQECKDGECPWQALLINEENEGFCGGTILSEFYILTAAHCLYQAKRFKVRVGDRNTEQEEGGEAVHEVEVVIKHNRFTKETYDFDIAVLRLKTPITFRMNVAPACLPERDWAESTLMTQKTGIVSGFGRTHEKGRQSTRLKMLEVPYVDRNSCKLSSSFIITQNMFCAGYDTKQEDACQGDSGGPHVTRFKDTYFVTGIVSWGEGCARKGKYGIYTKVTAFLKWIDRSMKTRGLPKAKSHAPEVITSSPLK

Row | SMILES | Ki (Coagulation factor X) [nM] | Ki (Coagulation factor VII) [nM] | Ki (Serine protease 1) [nM] | Ki (Prothrombin) [nM]
1 | CC(C)CCN(Cc1ccc2ccc(C(=N)N)cc2c1)C(=O)c1ccc2ccccc2c1 | 512 | 783 | 460 | 486
2 | CN1CCCC1CCN(Cc1ccc2ccc(C(=N)N)cc2c1)C(=O)c1cccc2ccccc12 (configuration not stated) | 111 | 142 | 433 | > 5000
3 | N=C(N)c1ccc2ccc(CN(CCc3ccccn3)C(=O)c3cccc4ccccc34)cc2c1 | 104 | 195 | 299 | 4760
4 | N=C(N)c1ccc2ccc(CN(CCCc3ccccc3)C(=O)c3cccc4ccccc34)cc2c1 | 632 | 207 | 925 | 1200
5 | N=C(N)c1ccc2ccc(CN(CCc3cnc[nH]3)C(=O)c3cccc4ccccc34)cc2c1 | 264 | 305 | 378 | > 5000
6 | N=C(N)c1ccc2ccc(CN(CCC[n+]3cc[nH]c3)C(=O)c3cccc4ccccc34)cc2c1 | 731 | 282 | 752 | > 5000
7 | CC1CCCCN1CCCN(Cc1ccc2ccc(C(=N)N)cc2c1)C(=O)c1cccc2ccccc12 (configuration not stated) | 137 | 646 | 367 | > 5000
8 | N=C(N)c1ccc2ccc(CN(CCCN3CCOCC3)C(=O)c3cccc4ccccc34)cc2c1 | 442 | 121 | 378 | > 5000
9 | CN1CCN(CCCN(Cc2ccc3ccc(C(=N)N)cc3c2)C(=O)c2cccc3ccccc23)CC1 | 136 | 1310 | 500 | 500
10 | N=C(N)c1ccc2ccc(CN(CCc3ccc(F)cc3)C(=O)c3cccc4ccccc34)cc2c1 | 40 | 194 | 501 | 1680
11 | COc1ccc(CCN(Cc2ccc3ccc(C(=N)N)cc3c2)C(=O)c2cccc3ccccc23)cc1OC | 417 | 133 | 105 | 2510
12 | CC(C)CCN(Cc1ccc2ccc(C(=N)N)cc2c1)C(=O)c1cccc2ccccc12 | 262 | 93 | 698 | 1160
13 | CC(C)CC(C(=O)O)N(Cc1ccc2ccc(C(=N)N)cc2c1)C(=O)c1cccc2ccccc12 (single isomer, unassigned) | > 5000 | 1010 | 1610 | > 5000
